Assay results reported in patent US10988465B2, “CXCR4 inhibitors and uses thereof” (X4 Pharmaceuticals, Inc., priority 2016, dated 2021).

Legend:
[1] = molecular target: T1, CXCR-4 transfected U87 cell line (U87.CXCR4) (Homo sapiens, UniProt P61073); assay: Intracellular CXCL-12-induced calcium mobilization assay (FLIPR); type: cell-based; conditions: U87.CXCR4 cells; CXCL-12 25-50 ng/mL; compound added 15 min before; read-out: IC50 CXCL-12 Ca^2+ flux U87.CXCR4+
T1 construct: expressed in transfected cells; host or cells: U87 (U87.CXCR4)
T1 sequence (P61073 whole entry): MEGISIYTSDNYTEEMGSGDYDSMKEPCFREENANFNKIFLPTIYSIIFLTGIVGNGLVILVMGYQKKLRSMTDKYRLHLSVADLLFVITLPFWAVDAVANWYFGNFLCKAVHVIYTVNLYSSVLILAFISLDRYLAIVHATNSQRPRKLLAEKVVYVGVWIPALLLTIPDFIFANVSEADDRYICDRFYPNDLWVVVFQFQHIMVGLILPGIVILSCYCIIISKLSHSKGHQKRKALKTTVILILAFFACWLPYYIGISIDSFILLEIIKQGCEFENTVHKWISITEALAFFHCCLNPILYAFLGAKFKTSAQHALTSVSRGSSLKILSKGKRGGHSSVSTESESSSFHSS
Procedure, shortened: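 CXCL-12 (25-50 ng/mL) was the stimulus, and the intracellular calcium rise was tracked kinetically by FLIPR at 37 °C. Cells were U87.CXCR4 transfectants pre-loaded 45 min at 37 °C with 4 μM (final) Fluo-2 AM in HEPES-buffered HBSS with 0.2% BSA, pH 7.4.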

[2] = molecular target: T2, Jurkat cells expressing CXCR4 (Homo sapiens, UniProt P61073); assay: Chemokine (CXCL12-AF647) binding inhibition assay; conditions: CXCL12-AF647 25 ng/mL, read-out: IC50 CXCL-12 binding Jurkat
T2 construct: endogenous in cells; host or cells: Jurkat
T2 sequence (P61073 whole entry): as above
Procedure, shortened: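 Cells in HBSS, 20 mM HEPES, 0.2% BSA, pH 7.4, preincubated 15 min at room temperature with compound, then 25 ng/mL CXCL12-AF647 for 30 min. After washing and paraformaldehyde fixation, bound ligand read by flow cytometry; percent inhibition calculated from MFI relative to unlabeled and ligand-only controls.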

in vitro = conditions: human, Caco-2, pH 7.4
Procedure, shortened: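 Bidirectional permeability across Caco-2 monolayers in HBSS (pH 7.4) at a test concentration of 10 μM, incubated 0 and 90 min at 37° C (n=2). Monolayer integrity was assessed by TEER and Lucifer yellow. Papp was derived from LC-MS/MS-measured concentrations.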

SMILES | IC50 [1] | IC50 [2] | Papp A→B at 90 min, 10 μM (in vitro) | Papp B→A at 90 min, 10 μM (in vitro) | efflux ratio at 90 min, 10 μM (in vitro)
CCN1CCC(Oc2cccc3nc([C@H]4CCC[C@@H](c5ncccc5C)N4C)[nH]c23)CC1 [I-43] | 0.01 to 100 nM | 0.01 to 100 nM | 0.1 to 10 ×10⁻⁶ cm/s | 10 to 30 ×10⁻⁶ cm/s | 0.1 to 10
Cc1cccnc1[C@@H]1CCC[C@H](c2nc3ccccc3n2CCCN(C)C)N1 [I-155] | ≥ 1000 nM | 0.01 to 100 nM | 0.1 to 10 ×10⁻⁶ cm/s | > 30 ×10⁻⁶ cm/s | 0.1 to 10
Cc1cccnc1[C@@H]1CCC[C@H](c2nc3cccc(N4CCN(C)CC4)c3n2C)N1 [I-123] | 0.01 to 100 nM | 0.01 to 100 nM | 0.1 to 10 ×10⁻⁶ cm/s | 10 to 30 ×10⁻⁶ cm/s | 0.1 to 10
CNCCCCn1c([C@H]2CCC[C@@H](c3ncccc3C)N2C)nc2ccccc21 [I-37] | ≥ 1000 nM | 0.01 to 100 nM | 0.1 to 10 ×10⁻⁶ cm/s | 10 to 30 ×10⁻⁶ cm/s | 10 to 30
Cc1cccnc1[C@@H]1CCC[C@H](c2nc3ccccc3n2CCn2cccn2)N1C [I-7, 1-(2-(1H-pyrazol-1-yl)ethyl)-2-((2R,6S)-1-methyl-6-(3-methylpyridin-2-yl)piperidin-2-yl)-1H-benzo[d]imidazole] | ≥ 1000 nM | 0.01 to 100 nM | 10 to 30 ×10⁻⁶ cm/s | 10 to 30 ×10⁻⁶ cm/s | 0.1 to 10
CCN1[C@@H](c2nc3ccccc3n2CC2CCN(C)CC2)CCC[C@H]1c1ncccc1C [I-25, 2-((2R,6S)-1-ethyl-6-(3-methylpyridin-2-yl)piperidin-2-yl)-1-((1-methylpiperidin-4-yl)methyl)-1H-benzo[d]imidazole] | 0.01 to 100 nM | 0.01 to 100 nM | 0.1 to 10 ×10⁻⁶ cm/s | 10 to 30 ×10⁻⁶ cm/s | 0.1 to 10
Cc1cccnc1[C@@H]1CCC[C@H](c2nc3cccc(N4CC5CC(C4)N5C)c3[nH]2)N1C [I-109] | 100 to 1000 nM | 0.01 to 100 nM | 0.1 to 10 ×10⁻⁶ cm/s | 10 to 30 ×10⁻⁶ cm/s | 0.1 to 10
CC(C)c1cccnc1[C@@H]1CCC[C@H](c2nc3cccc(N4CCN(C)CC4)c3[nH]2)N1C [I-49] | 100 to 1000 nM | 0.01 to 100 nM | 10 to 30 ×10⁻⁶ cm/s | 0.1 to 10 ×10⁻⁶ cm/s | 0.1 to 10
CN1[C@@H](c2nc3cccc(N4CCN5CCCC5C4)c3[nH]2)CCC[C@H]1c1ncccc1Cl (some centres unmarked) [I-150] | 0.01 to 100 nM | 0.01 to 100 nM | 10 to 30 ×10⁻⁶ cm/s | 10 to 30 ×10⁻⁶ cm/s | 0.1 to 10
Cc1cccnc1[C@@H]1CCC[C@H](c2nc3cccc(N4CCN(C5CC5)CC4)c3[nH]2)N1 [I-125] | 0.01 to 100 nM | 0.01 to 100 nM | 10 to 30 ×10⁻⁶ cm/s | 10 to 30 ×10⁻⁶ cm/s | 0.1 to 10
CNCCCn1c([C@H]2CCC[C@@H](c3ncccc3C)N2C)nc2ccccc21 [I-16, N-methyl-3-(2-((2R,6S)-1-methyl-6-(3-methylpyridin-2-yl)piperidin-2-yl)-1H-benzo[d]imidazol-1-yl)propan-1-amine] | 0.01 to 100 nM | 0.01 to 100 nM | 0.1 to 10 ×10⁻⁶ cm/s | 10 to 30 ×10⁻⁶ cm/s | > 30
CN1CC2CCC(C1)N2c1cccc2nc([C@H]3CCC[C@@H](c4ncccc4Cl)N3)[nH]c12 [I-121] | 0.01 to 100 nM | 0.01 to 100 nM | 10 to 30 ×10⁻⁶ cm/s | 10 to 30 ×10⁻⁶ cm/s | 0.1 to 10
CN1C2CCC1CN(c1cccc3nc([C@H]4CCC[C@@H](c5ncccc5Cl)N4)[nH]c13)C2 [I-119] | 100 to 1000 nM | 0.01 to 100 nM | 10 to 30 ×10⁻⁶ cm/s | 10 to 30 ×10⁻⁶ cm/s | 0.1 to 10
[2H]C([2H])([2H])N1[C@@H](c2nc3cccc(N4CCN(C)CC4)c3[nH]2)CCC[C@H]1c1ncccc1C [I-112] | 0.01 to 100 nM | 0.01 to 100 nM | 10 to 30 ×10⁻⁶ cm/s | 10 to 30 ×10⁻⁶ cm/s | 
CN1CCC(n2c([C@H]3CCC[C@@H](c4ccccn4)N3)nc3ccccc32)CC1 [I-154] | 100 to 1000 nM | 0.01 to 100 nM | 10 to 30 ×10⁻⁶ cm/s | 10 to 30 ×10⁻⁶ cm/s | 0.1 to 10
CN1CCN(c2cccc3nc([C@H]4CCC[C@@H](c5ncccc5C#N)N4C)[nH]c23)CC1 [I-10, 2-((2S,6R)-1-methyl-6-(7-(4-methylpiperazin-1-yl)-1H-benzo[d]imidazol-2-yl)piperidin-2-yl)nicotinonitrile] | ≥ 1000 nM | 100 to 1000 nM | 10 to 30 ×10⁻⁶ cm/s | 10 to 30 ×10⁻⁶ cm/s | 0.1 to 10
CN1CCN(c2cccc3nc([C@H]4CCC[C@@H](c5ncccc5C5CC5)N4C)[nH]c23)CC1 (stereo in doubt) [I-61] | 0.01 to 100 nM | 0.01 to 100 nM | 10 to 30 ×10⁻⁶ cm/s | 10 to 30 ×10⁻⁶ cm/s | 0.1 to 10
CN(C)C1CCN(c2cccc3nc([C@H]4CCC[C@@H](c5ncccc5Cl)N4)[nH]c23)CC1 [I-153] | 0.01 to 100 nM | 0.01 to 100 nM | 0.1 to 10 ×10⁻⁶ cm/s | 10 to 30 ×10⁻⁶ cm/s | 0.1 to 10
Cc1cccnc1[C@@H]1C[C@@H](O)C[C@H](c2nc3cccc(N4CCN(C)CC4)c3[nH]2)N1C [I-101] | 0.01 to 100 nM | 0.01 to 100 nM | 0.1 to 10 ×10⁻⁶ cm/s | 10 to 30 ×10⁻⁶ cm/s | > 30
COCCCn1c([C@H]2CCC[C@@H](c3ncccc3C)N2)nc2ccccc21 [I-158] | ≥ 1000 nM | ≥ 1000 nM | 10 to 30 ×10⁻⁶ cm/s | 10 to 30 ×10⁻⁶ cm/s | 0.1 to 10
CCN1CCN(c2cccc3nc([C@H]4CCC[C@@H](c5ncccc5C)N4C)[nH]c23)CC1 [I-74] | 0.01 to 100 nM | 0.01 to 100 nM | 10 to 30 ×10⁻⁶ cm/s | 10 to 30 ×10⁻⁶ cm/s | 0.1 to 10
Cc1cccnc1[C@@H]1CCC[C@H](c2nc3c(Br)ccc(Br)c3n2CC2CCN(C)CC2)N1C [I-47] | 100 to 1000 nM | 0.01 to 100 nM | 0.1 to 10 ×10⁻⁶ cm/s | 10 to 30 ×10⁻⁶ cm/s | 0.1 to 10
Cc1cccnc1[C@@H]1CCC[C@H](c2nc3ccccc3n2CCCCN(C)C)N1C [I-38] | 100 to 1000 nM | 0.01 to 100 nM | 0.1 to 10 ×10⁻⁶ cm/s | 10 to 30 ×10⁻⁶ cm/s | 0.1 to 10
Cc1cccnc1[C@@H]1CCC[C@H](c2nc3cccc(N4CCN(C(C)C)CC4)c3[nH]2)N1C [I-75] | 0.01 to 100 nM | 0.01 to 100 nM | 10 to 30 ×10⁻⁶ cm/s | 0.1 to 10 ×10⁻⁶ cm/s | 0.1 to 10
Clc1cccnc1[C@@H]1CCC[C@H](c2nc3cccc(N4CCN(C5CC5)CC4)c3[nH]2)N1 [I-143] | 0.01 to 100 nM | 0.01 to 100 nM | 10 to 30 ×10⁻⁶ cm/s | 10 to 30 ×10⁻⁶ cm/s | 0.1 to 10
Cc1cccnc1[C@@H]1CCC[C@H](c2nc3ccccc3n2C2CCN(C)CC2)N1 [I-131] | 100 to 1000 nM | 0.01 to 100 nM | 0.1 to 10 ×10⁻⁶ cm/s | 10 to 30 ×10⁻⁶ cm/s | 0.1 to 10
Cc1cccnc1[C@@H]1CCC[C@H](c2nc3cccc(N4CCNC(C)C4)c3[nH]2)N1C (some centres unmarked) [I-50] | 0.01 to 100 nM | 0.01 to 100 nM | 0.1 to 10 ×10⁻⁶ cm/s | 10 to 30 ×10⁻⁶ cm/s | 10 to 30
